Laboratory results: patent US10370401B2, “Substituted nucleosides, nucleotides and analogs thereof” (Alios BioPharma, Inc., priority 2013, dated 2019)
Like-named read-outs stand apart in the source and are kept apart here.

Experiments:
Format in all cases: cell-based
[1] = test system: human rhinovirus 16 (HRV-16), coxasackie B3 (CVB3), enterovirus-68 (EV-68) and enterovirus-71 (EV-71); test: Enterovirus assay (four viruses, CellTiter Glo)
subgenomic HCV replicon = test: HCV replicon assay (Huh-7, luciferase reporter); settings: Hepatitis C virus; Huh-7 HCV replicon cells, luciferase, 72 hours; read-out: EC50
HRV-89 = test: Human rhinovirus strain panel assay, HRV-89; settings: Rhinovirus A, HRV89; HRV-89; HeLa-OHIO cells; read-out: EC50
Human rhinovirus 1B = test: Picornavirus assay (CPE, CellTiter-Glo, HeLa-OHIO cells); settings: Rhinovirus A, 96 h; Human rhinovirus 1B, HeLa-OHIO cells, 4 d at 33° C.; read-out: EC50
[2] = Cytotoxicity in HeLa OHIO host cell line; settings: human, HeLa-OHIO cells, n>5

SMILES: CC(C)OC(=O)OCOP(=O)(OCOC(=O)OC(C)C)OC[C@@]1(CF)O[C@@H](n2ccc(=O)[nH]c2=O)[C@](C)(O)[C@@H]1O [Compound 44]
- EC50 ([1]; HRV-16, CVB3, EV-68 (HeLa-OHIO cells) and EV-71 (RD cells), read-out: EC50 ranging (across four viruses)): 0.38 to 2.52 µM
- EC50 ([1]; mean over HRV-16, CVB3, EV-68 and EV-71, read-out: EC50 mean (across four viruses)): 1.39 ± 1.14 µM
- EC50 (subgenomic HCV replicon): < 1 µM
- EC50 (HRV-89): 1 to 2 µM
- EC50 (Human rhinovirus 1B): < 1 µM
- CC50 [2]: > 100 µM
